Some test systems named below: RXF-631 renal; DMS 273 small cell lung; SNB-78 CNS; KM20L2 colon; DMS 114 small cell lung; LXFL 529 NSCLC; M19-MEL melanoma; XF 498 CNS; M14 melanoma; DLD-1 colon; P388/ADR leukemia; SN12K1 renal; P388 leukemia; HOP-18 NSCLC; PC-3 prostate; BT-549 breast; MDA-N; T-47D breast; MDA-MB-231 breast.
What all share (test): NCI tumour cell line growth inhibition, 48 h

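In this assay, cells in 96-well plates receive the compound at five concentrations for 48 hours. Endpoints are linearly interpolated between the surrounding concentrations. GI50 = concentration required for 50% inhibition of growth. Definition used: TGI = concentration required for complete inhibition of growth.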

Drawing on PubChem BioAssay (NCI), this text covers TGI and GI50 for 10 compounds.

As to `O=[N+]([O-])c1nc(-c2ccccn2)[nH]c1[N+](=O)[O-]`, the TGI was more than 100 µM in the assay on RXF-631 renal; more than 100 µM in the assay on DMS 273 small cell lung; more than 100 µM in the assay with SNB-78 CNS; more than 100 µM in the assay on KM20L2 colon; 38.9 µM with DMS 114 small cell lung; more than 100 µM in the assay with LXFL 529 NSCLC. In addition, the TGI in the assay with M19-MEL melanoma, with XF 498 CNS, in the assay with M14 melanoma and with DLD-1 colon was more than 100 µM in each case.
Consider `COC1=C2CC(C)CC(OC)C(O)C(C)/C=C(\C)C(OC(N)=O)C(OC)/C=C\C=C(/C)C(=O)NC(=C(C=NC(C)(C)C)C1=O)C2=O` (centres undefined), for which the TGI in the assay on P388/ADR leukemia amounted to 62.5 µM; in the assay on SN12K1 renal it was 31.2 µM; in the assay on DMS 273 small cell lung, 11.9 µM; with SNB-78 CNS, 46.2 µM; with KM20L2 colon, 14.6 µM; in the assay with P388 leukemia it was 8.79 µM. Also, the TGI with DMS 114 small cell lung is 3.82 µM; in the assay with M19-MEL melanoma, 15.6 µM; in the assay with XF 498 CNS it was 3.09 µM; in the assay with HOP-18 NSCLC, 33.7 µM; in the assay with DLD-1 colon, 45.7 µM.
As for `Nc1ncnc2c1ncn2C1OC(COP(=O)(O)O)C(O)C1O` (centres undefined), the TGI with P388/ADR leukemia is more than 50 µM; in the assay with SN12K1 renal it was more than 50 µM; with DMS 273 small cell lung, more than 50 µM; in the assay on SNB-78 CNS, more than 50 µM; with KM20L2 colon, more than 50 µM; with P388 leukemia it was more than 37.3 µM. In addition, the TGI in the assay on DMS 114 small cell lung was more than 50 µM; in the assay with M19-MEL melanoma, more than 50 µM; in the assay with XF 498 CNS, more than 44.7 µM; in the assay on HOP-18 NSCLC it was more than 50 µM; with DLD-1 colon it was more than 31.6 µM.
Consider `O=C1OC(c2ccccc2)=N/C1=C\c1cccnc1`, for which the TGI in the assay on PC-3 prostate, in the assay on BT-549 breast and in the assay on M14 melanoma was more than 100 µM each time.
For `CCOC(=O)NC(Nc1ncccn1)(C(F)(F)F)C(F)(F)F`, the TGI in the assay on MDA-N, with BT-549 breast, in the assay with M14 melanoma, in the assay with T-47D breast and in the assay on MDA-MB-231 breast was more than 100 µM each time.
As for `N/C(=N\N=C/c1ccccc1O)NO`, the TGI is 10.8 µM in the assay on P388/ADR leukemia; more than 100 µM in the assay on SN12K1 renal; 28.7 µM in the assay with DMS 273 small cell lung; more than 96.6 µM in the assay with SNB-78 CNS; more than 100 µM in the assay with KM20L2 colon; 18.7 µM in the assay with P388 leukemia. Moreover, the TGI is 30.7 µM in the assay with DMS 114 small cell lung; more than 100 µM in the assay on M19-MEL melanoma; 37.4 µM with XF 498 CNS; more than 100 µM in the assay with HOP-18 NSCLC; more than 45.6 µM with DLD-1 colon.
For `CCS(=O)(=O)N1CCC(C(C)n2c(C)c(C(=O)NCc3c(OC)cc(C)[nH]c3=O)c3ccccc32)CC1` (centres undefined), in the assay with T-47D breast, the GI50 was more than 100 µM and the TGI was more than 100 µM.
Consider `O=C1OC[C@@H]2[C@@H](O)CCCCCN12`, for which the TGI in the assay with MDA-N, with PC-3 prostate, in the assay on BT-549 breast, in the assay with T-47D breast and in the assay with MDA-MB-231 breast was more than 100 µM throughout.
Turning to `COc1cc2c(cc1OC)-c1cc3ccccc3c[n+]1CC2`, the TGI with MDA-N, with PC-3 prostate, in the assay with BT-549 breast, in the assay with M14 melanoma, in the assay with T-47D breast and in the assay with MDA-MB-231 breast was more than 100 µM in each case.
On to `CC1(C)CC23C4COC(=O)C2CCC1C3CC4=O` (centres undefined), for which the TGI amounted to 84.5 µM in the assay on P388/ADR leukemia; 48.2 µM in the assay on SN12K1 renal; 71 µM with DMS 273 small cell lung; 73.4 µM with SNB-78 CNS; 54.6 µM with KM20L2 colon; 111 µM in the assay on P388 leukemia. The TGI in the assay on M19-MEL melanoma is 40.7 µM; in the assay on XF 498 CNS, 27.2 µM; in the assay with HOP-18 NSCLC it was 5.11 µM; in the assay on DLD-1 colon, 42.6 µM.
